Columns and labels:
[1] = test system: Cytochrome c, Bax, Bcl-2, Caspase-3, Caspase-9 in HeLa cells; experiment: Western blot of mitochondrial apoptosis markers; assay type: cell-based, human; conditions: 0.1 and 0.2 μM, 48 h
Experimental: (§1) HeLa cells were seeded at a density of 5 × 10^6 cells per well and attached for 8 h, and then treated with different concentrations of compound 4d for 48 h. After the treatment, the cells were harvested and washed twice with PBS. The harvested cells were lysed with radio-immunoprecipitation assay (RIPA) lysis buffer (Beyotime Biotech., Nantong, China) with 1% cocktail (Sigma-Aldrich, St. Louis, MO, USA). Whole-cell protein lysates were prepared and centrifuged at 12,000 rpm for 10 min at 4 °C. The total proteins were determined using Bradford reagent (Bio-Rad Laboratories, Inc., Hercules, CA, USA). Exactly 40 μg of protein per lane was separated through sodium dodecyl sulphate-polyacrylamide gel electrophoresis and then transferred onto a polyvinylidene difluoride membrane (Millipore, Bedford, MA, USA). The membranes were incubated with each antibody and detected through immunoblot analysis. All of the antibodies were purchased from Cell signalling Technology, Inc. (Boston, MA, USA) and diluted in accordance with the manufacturer’s instruction. Proteins were visualised using a C-Digit® imaging system (LI-COR, Lincoln, NE, USA).
To further explore whether compound 4d induced apoptosis via the mitochondrial signalling pathway, a number of key protein markers involved in mitochondria-mediated apoptosis were examined by Western blot analysis. The Bcl-2 family members are important regulators of the mitochondrial apoptotic pathway. Two most important members of Bcl-2 family, the anti-apoptotic protein Bcl-2 and the pro-apoptotic protein Bax, are key regulators of this progress. As shown in Figure 6(a), the expression level of Bax was elevated in HeLa cells compared with the control group, whereas the expression level of Bcl-2 was decreased after treatment with compound 4d for 48 h. […] Moreover, cytochrome c is reported as a key protein involved in the activation of the downstream caspases that trigger apoptosis. Caspases are a family of cysteinyl aspartate-specific proteases involved in apoptosis, which can be classified into groups of initiators (caspases 8, 9, and 10) and executioners (caspases 3, 6, and 7)[48]^,[49]. In this assay, we also examined the roles of cytochrome c, caspase-3, and caspase-9 in the cellular response to compound 4d.

[2] = test system: ERK1/2 and pERK1/2 in HeLa cells; experiment: Western blot of ERK and pERK; assay type: cell-based, human; conditions: 48 h
Experimental: as §1
Subsequently, to evaluate the MEK inhibition of compound 4d in cancer cells, western blot analyses were also carried out to evaluate the expression levels of ERK and phosphorylated ERK (pERK) proteins in compound 4d-treated HeLa cells.

CC(=O)NNC(=O)C12CCC(C)C(C)C1C1=CCC3C4(C)Cc5cc6cc(Cl)ccc6nc5C(C)(C)C4CCC3(C)C1(C)CC2 (centres unmarked) [Compound 4d, N-[5′-chloro-ursa-12-en-(2,3)-quinoline-28-oyl]-acetohydrazide]
level of caspase-3 [1]: significantly increased
level of caspase-9 [1]: significantly increased
ratio of Bax/Bcl-2 [1]: increased in a dose-dependent manner
expression level of Bax ([1]; compared with control): elevated
expression level of Bcl-2 ([1]; compared with control): decreased
level of cytochrome c ([1]; cytosol): significantly increased
expression level of pERK1/2, % of the control group ([2]; 0.05 μM): 74.7%
expression level of pERK1/2, % of the control group ([2]; 0.1 μM): 41.3%
expression level of pERK1/2, % of the control group ([2]; 0.2 μM): 29.5%
expression levels of ERK1/2 ([2]; 0.05, 0.1, 0.2 μM): slightly decreased
expression levels of pERK1/2 ([2]; 0.05, 0.1, 0.2 μM): significantly downregulated

From PMC6522941, “Design, synthesis, and anticancer evaluation of novel quinoline derivatives of ursolic acid with hydrazide, oxadiazole, and thiadiazole moieties as potent MEK inhibitors” (Journal of Enzyme Inhibition and Medicinal Chemistry, 2019)
